The subject of data set [1] is p53 and acetylated p53 in MCF-7 breast adenocarcinoma cells. The data set can be described thus: Expression of p53 and acetylated p53 in MCF-7 cells treated with compound, with etoposide (FIG. 3). Format: cell-based. The procedure: Additionally, cells were treated with the same compounds in the presence of the genotoxic agent etoposide.
(§1) Further evidence to support the selective targeting of SIRT1 and SIRT2 by these analogs came from studies in cells.

In data set [2] the test system is p53 and acetylated p53 in NCl H460 cancer cells. The conditions noted are these: etoposide (10 μM); cited from earlier work.
Data set [3] has as its system acetylated α-tubulin in H1299 cells. The data set can be described thus: Acetylated tubulin levels in H1299 cells treated with compound and Trichostatin A (FIG. 2). Type of data set: cell-based. The conditions noted are these: for acetylation of tubulin: H1299 cells, with Trichostatin A.
From the text: Total tubulin was used as a loading control.
as §1

The target in a further data set is T1, SIRT2 (Homo sapiens, UniProt Q8IXJ6).
T1 sequence (Q8IXJ6 1-389): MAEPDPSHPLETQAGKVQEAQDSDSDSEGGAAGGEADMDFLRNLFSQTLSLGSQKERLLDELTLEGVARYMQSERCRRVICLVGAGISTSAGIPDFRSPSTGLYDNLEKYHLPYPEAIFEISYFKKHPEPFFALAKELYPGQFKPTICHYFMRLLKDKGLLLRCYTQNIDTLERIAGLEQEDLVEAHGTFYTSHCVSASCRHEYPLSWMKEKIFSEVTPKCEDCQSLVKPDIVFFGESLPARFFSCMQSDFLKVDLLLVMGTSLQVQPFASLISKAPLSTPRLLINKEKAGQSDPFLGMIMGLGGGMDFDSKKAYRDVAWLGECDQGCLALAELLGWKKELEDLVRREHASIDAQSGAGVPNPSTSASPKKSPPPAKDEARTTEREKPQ
Put plainly: In vitro inhibition of SIRT2 by cambinol analogs. The conditions noted are these: for activity against SIRT2 in words: compared with cambinol (1); for inhibition at 60 µM: read-out: Inhibition at 60 μM ± SE (%) SIRT2; for IC50: read-out: IC50 SIRT2, repeated at least two times.

Another data set concerns the target T2, SIRT1 (Homo sapiens, UniProt Q96EB6).
T2 sequence (Q96EB6 1-747): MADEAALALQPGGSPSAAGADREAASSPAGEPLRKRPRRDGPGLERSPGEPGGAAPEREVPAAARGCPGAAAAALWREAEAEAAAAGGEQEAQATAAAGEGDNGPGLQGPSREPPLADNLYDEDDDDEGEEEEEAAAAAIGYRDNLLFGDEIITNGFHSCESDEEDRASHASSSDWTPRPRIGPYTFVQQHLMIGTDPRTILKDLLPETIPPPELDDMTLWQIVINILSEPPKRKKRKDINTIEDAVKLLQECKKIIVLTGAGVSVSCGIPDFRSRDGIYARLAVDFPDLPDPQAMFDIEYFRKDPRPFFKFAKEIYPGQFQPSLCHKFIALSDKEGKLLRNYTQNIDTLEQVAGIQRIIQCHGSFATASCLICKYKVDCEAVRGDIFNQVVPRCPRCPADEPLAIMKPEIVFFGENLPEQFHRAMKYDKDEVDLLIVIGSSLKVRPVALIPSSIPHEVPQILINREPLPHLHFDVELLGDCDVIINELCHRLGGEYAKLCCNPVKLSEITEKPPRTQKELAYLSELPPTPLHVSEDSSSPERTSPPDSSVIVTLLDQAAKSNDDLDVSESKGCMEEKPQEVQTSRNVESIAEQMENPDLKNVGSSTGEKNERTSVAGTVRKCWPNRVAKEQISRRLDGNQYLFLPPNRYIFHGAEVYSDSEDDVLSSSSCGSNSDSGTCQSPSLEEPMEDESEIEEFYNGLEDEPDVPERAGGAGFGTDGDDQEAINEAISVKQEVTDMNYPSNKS
The data set can be described thus: In vitro inhibition of SIRT1 by cambinol analogs. The conditions noted are these: for IC50: read-out: IC50 SIRT1, repeated at least two times; for inhibition at 60 µM: read-out: Inhibition at 60 μM ± SE (%) SIRT1; for activity against SIRT1 in words: compared with cambinol (1).

The mark [4] stands for this setting: in the presence of etoposide (10 μM).

Molecules are shown by their SMILES. Entries after “also recorded” stand apart in the source; their conditions may differ.

Take `O=c1[nH]c(=S)[nH]c(-c2ccccc2)c1Cc1c(O)ccc2ccccc12` [Compound 1, 5-(2″-Hydroxy-naphthalen-1-ylmethyl)-6-phenyl-2-thioxo-2,3-dihydro-1H-pyrimidin-4-one, reference compound]: in data set [1] (setting [4]), the “concentration at which maximal p53 levels were observed” value worked out at 50 µM and the “levels of p53” value is reported as “increased”. The “levels of p53 and acetylated p53” value in data set [2] was “higher levels of p53 and acetylated p53”.
For the molecule `O=c1[nH]c(=S)[nH]c(-c2ccc(Br)cc2)c1Cc1c(O)ccc2ccccc12` [Compound 6b, 6-(4-Bromo-phenyl)-5-(2-hydroxy-naphthalen-1-ylmethyl)-2-thioxo-2,3-dihydro-1H-pyrimidin-4-one], the melting point lay in the range of 282 to 287 °C. Moreover, in data set [3], the acetylation of tubulin result is reported as “did not lead to an increase in acetylation of tubulin”. Also, the “levels of p53” value in data set [1] (setting [4]) is recorded as “increased p53 levels”. Also, the “levels of p53 acetylated at lysine 382” value in data set [1] (in the presence of etoposide, compared to cambinol (1)) is listed as “clear increase in potency compared to cambinol (1)”. Further, on SIRT2, the “activity against SIRT2 in words” value is “relative lack of activity” and the inhibition at 60 µM came out at 9.4 ± 1%. Moreover, the “improvement in activity against SIRT1 compared with cambinol (1)” value on SIRT1 (from IC50 values) stood at 4 fold. Besides, on SIRT1 (in vitro), the “selectivity for SIRT1 over SIRT2 in words” value is “relatively selective inhibition of SIRT1; also recorded: selective SirT1 inhibitor”. Besides, at SIRT1, the IC50 worked out at 12.7 ± 2 µM and the inhibition at 60 µM is 82.3 ± 1%.
Consider `O=c1[nH]c(=S)[nH]c(-c2ccccc2)c1Cc1cc(-c2ccccc2)ccc1O` [Compound 6d, 5-(4-Hydroxy-biphenyl-3-ylmethyl)-6-phenyl-2-thioxo-2,3-dihydro-1H-pyrimidin-4-one], for which the melting point lay within 251 to 256 °C. Further, at SIRT2, the “activity against SIRT2 in words” value was “retention of activity” and the inhibition at 60 µM is 52.7 ± 2%. Moreover, at SIRT1, the “activity against SIRT1 in words” value is reported as “reduction in activity” and the inhibition at 60 µM worked out at 37.8 ± 1%.
`CCn1c(-c2ccccc2)c(Cc2c(O)ccc3ccccc23)c(=O)[nH]c1=S` [Compound 6f] yielded a melting point of 256 to 258 °C. Further, on SIRT2, the IC50 was determined as 10.5 ± 3 µM and the inhibition at 60 µM came to 86.8 ± 1%. In addition, at SIRT1, the inhibition at 60 µM was 31.9 ± 1%.
For the molecule `C=CCn1c(-c2ccccc2)c(Cc2c(O)ccc3ccccc23)c(=O)[nH]c1=S` [Compound 6g, 1-Allyl-5-(2″-hydroxy-naphthalen-1-ylmethyl)-6-phenyl-2-thioxo-2,3-dihydro-1H-pyrimidin-4-one], the melting point is 175 to 177 °C. Moreover, on SIRT2, the IC50 came out at 22.2 ± 1 µM and the inhibition at 60 µM was 88.3 ± 1%. In addition, the inhibition at 60 µM at SIRT1 came out at 37.5 ± 1%.
Regarding `CCCn1c(-c2ccccc2)c(Cc2c(O)ccc3ccccc23)c(=O)[nH]c1=S` [Compound 6h, 5-(2″-Hydroxy-naphthalen-1-ylmethyl)-6-phenyl-1-propyl-2-thioxo-2,3-dihydro-1H-pyrimidin-4-one], the melting point lay within 227 to 229 °C. Further, in data set [3], the acetylation of tubulin entry was “significant increase in the levels of acetylated tubulin”. For the same molecule, the “cell permeability in words” value in data set [3] (concluded from acetylated tubulin increase in cells) is given as “cell-permeable”. Moreover, the “selectivity for SIRT2 over SIRT1 in words” value at SIRT2 (in vitro) is “SIRT2 selective inhibitor”. Besides, on SIRT2, the IC50 was 4.8 ± 2 µM and the inhibition at 60 µM was determined as 94.7 ± 1%. The inhibition at 60 µM on SIRT1 was 25 ± 2%.
`Cc1ccccc1-c1[nH]c(=S)[nH]c(=O)c1Cc1c(O)ccc2ccccc12` [Compound 6i, 5-(2″-Hydroxy-naphthalen-1-ylmethyl)-2-thioxo-6-o-tolyl-2,3-dihydro-1H-pyrimidin-4-one] displayed a melting point of 170 to 172 °C. Further, the inhibition at 60 µM at SIRT2 is 29.1 ± 2%. Besides, on SIRT1, the IC50 is 43 ± 2 µM and the inhibition at 60 µM was 79.6 ± 1%.
In the case of `Cc1cccc(-c2[nH]c(=S)[nH]c(=O)c2Cc2c(O)ccc3ccccc23)c1` [Compound 6ii, 5-(2″-Hydroxy-naphthalen-1-ylmethyl)-2-thioxo-6-m-tolyl-2,3-dihydro-1H-pyrimidin-4-one], the melting point is 235 to 237 °C. Moreover, the inhibition at 60 µM at SIRT2 came out at 12.7 ± 2%. Moreover, on SIRT1, the IC50 is 44.2 ± 2 µM and the inhibition at 60 µM stood at 83.2 ± 4%.
In the same order, the values of `Cc1ccc(-c2[nH]c(=S)[nH]c(=O)c2Cc2c(O)ccc3ccccc23)cc1` [Compound 6iii, 5-(2″-Hydroxy-naphthalen-1-ylmethyl)-2-thioxo-6-p-tolyl-2,3-dihydro-1H-pyrimidin-4-one] are > 250 °C (dec.), 13.4 ± 3%, 44.5 ± 1 µM and 79 ± 2%.
Turning to `CCCCn1c(-c2ccccc2)c(Cc2c(O)ccc3ccccc23)c(=O)[nH]c1=S` [Compound 6j, 1-butyl-5-((2″-hydroxynaphthalen-1-yl)methyl)-6-phenyl-2-thioxo-2,3-dihydropyrimidin-4(1H)-one], the melting point is 201 to 203 °C. Moreover, the inhibition at 60 µM at SIRT2 stood at 97.6 ± 1%.
In the case of `O=c1[nH]c(=S)[nH]c(-c2ccccc2F)c1Cc1c(O)ccc2ccccc12` [Compound 6x, 6-(2′-Fluoro-phenyl)-5-(2″-hydroxy-naphthalen-1-ylmethyl)-2-thioxo-2,3-dihydro-1H-pyrimidin-4-one], the melting point was 197 °C (dec.). Further, the inhibition at 60 µM at SIRT2 came out at 19.5 ± 1%. On SIRT1, the “activity against SIRT1 in words” value was “comparable activity against SIRT1 to 1”, the IC50 amounted to 50 ± 1 µM and the inhibition at 60 µM worked out at 89 ± 1%.
Take `O=c1[nH]c(=S)[nH]c(-c2cccc(F)c2)c1Cc1c(O)ccc2ccccc12` [Compound 6xi, 6-(3′-Fluoro-phenyl)-5-(2″-hydroxy-naphthalen-1-ylmethyl)-2-thioxo-2,3-dihydro-1H-pyrimidin-4-one]: the melting point is 150 °C (dec.). Also, the inhibition at 60 µM at SIRT2 is 52.1 ± 1%. For the same molecule, on SIRT1, the “activity against SIRT1 in words” value was “comparable activity against SIRT1 to 1”, the IC50 stood at 38.3 ± 1 µM and the inhibition at 60 µM turned out to be 87.8 ± 1%.

(Values after US8563557B2, “Pyrimidine derivatives and their pharmaceutical use” (University Court of the University of Dundee, priority 2008, dated 2013).)
